We go through 10 compounds from patent US8637312B2, “Mammalian culture media with polyamine and iron” (Cellca GmbH, priority 2008, dated 2014).

Data set [1] concerns rat hepatoma cells. As to conditions: 100 μM in culture medium; Itoh et al. 1994; cited from earlier work.
In data set [2] the test system is CHO DG44 host cell line. The data set is described as follows: High cell density fed-batch culture of antibody producing CHO clone, cell growth. Format: cell-based, Chinese hamster. To be noted: for requirement for optimal cell growth: Example 6, FIG. 6, spermine with iron (III) citrate, iron (III) citrate supplemented at day 6 to 400 mg/l; for effect of spermine and iron together on cell growth: Example 1, FIG. 1, both at high concentration, feed media polyamine and iron free. From the text: (§1) For all experiments a CHO DG44 host cell line (Urlaub and Chasin, Proc. Natl. Acad. Sci. USA, 1980, 77: 4216) was used. This host cell line was transfected with a vector carrying the gene of an IgG antibody. Transfectants were amplified using MTX in culture medium. An antibody producing clone was isolated and this clone was then used for all experiments.
(§2) Stock culture cells were kept in a shake flask or in a spinner flask. The stock culture was split into fresh culture medium every two or three days. That means, a small amount of cell culture was used as inoculum and transferred into a new flask and supplemented with fresh culture medium. Cells were cultured at 37° C. in CO2 atmosphere in an incubator. In this way cells were cultured in several passages. One passage is defined as a culture duration of 2-4 days. At different time points inoculum cells were taken from the stock culture and experiments were performed in various scales, for examples in 6-well plates, shake flasks, T-flasks, spinner flasks and bioreactors.
A basal medium as follows (in the following also termed proprietary culture medium) was used for cultivation of cells in all steps, e.g. in the stock culture, in the culture expansion step and in the production step. The basal medium contains all necessary substances for cell growth, cell viability and cellular productivity. The basal medium contains glucose at 1.0-6.0 g/l, NaCl 2.8-6.2 g/l, KCl 273-945 mg/l, CaCl2 48-290 mg/l, MgCl2 42-330 mg/l, NaH2PO4 56-1130 mg/l, Arginine 56-930 mg/l, Asparagine 44-900 mg/l, Aspartic acid 26-445 mg/l, Cysteine 35-270 mg/l, Glutamic acid 44-900 mg/, Glutamine 44-900 mg/l, Glycine 18-180 mg/l, Histidine 42-670 mg/l, Isoleucine 54-877 mg/l, Leucine 59-1250 mg/l, Lysine 73-1120 mg/l, Methionine 9-454 mg/l, Phenylalanine 35-677 mg/l, Proline 17-828 mg/l, Serine 26-1339 mg/l, Threonine 24-989 mg/l, Tryptophane 9-441 mg/l, Tyrosine 55-565 mg/l, Valine 52-787 mg/l, NaHCO3 2,4 g/l. The basal medium further comprises fatty acids and nucleotides. In all batch and fed-batch experiments the same proprietary culture medium and proprietary feed medium were used, unless otherwise stated. The feed medium used in fed-batch experiments (in the following also termed “proprietary feed medium”) has all necessary substances for cell growth, cell viability and cellular productivity, in particular salts, trace elements, carbohydrates, amino acids, fatty acids, pH regulator, nucleotides. Even though here a rich feed medium is used containing above mentioned substances, feed media must not comprise all of these components. Feed media consisting of one or more of above mentioned substances are suitable also. Both basal medium and feed medium are serum free, protein free, peptone free and peptide free. However, supplementation of media with one or more of above mentioned additives is possible. Thus, both media are chemically defined, consisting of only single, fully defined chemicals.
Experiments were performed either in batch or in fed-batch modus. If an experiment was designed for fed-batch modus, it was started by inoculating the flask with stock culture cells in the production medium (culture medium). Culture flasks were inoculated with an inoculation cell density of 2 to 4×10^5 viable cells per millilitre. Cells were cultured for 1 to 4 days. The culture was supplemented thereafter with a feed medium for first time. Feeding was done batch wise every 1 to 3 days. Feeding the culture with feed medium was performed batch wise (bolus addition). Feeding of culture can also be done continuously, especially in bioreactors. In fed-batch experiments two different feed media were used. However, it is possible to use one or more than two different feed media. The culture was incubated as long as the cell viability was greater than 50%. Thus, culture duration was approximately 10 to 18 days. Every day samples were taken from cultures and analytical processes were done, such as cell count and metabolite measurements. […]

Data set [3] concerns CHO DG44 host cell line. The data set can be described thus: Batch culture of antibody producing CHO clone, cell growth. To be noted: for effect of spermine and iron together on cell concentration: Example 5, FIG. 5, spermine with iron (III) nitrate nonahydrate, both at high concentration. Format: cell-based, Chinese hamster.
Source text: as §1, §2
A basal medium as follows (in the following also termed proprietary culture medium) was used for cultivation of cells in all steps, e.g. in the stock culture, in the culture expansion step and in the production step. The basal medium contains all necessary substances for cell growth, cell viability and cellular productivity. The basal medium contains glucose at 1.0-6.0 g/l, NaCl 2.8-6.2 g/l, KCl 273-945 mg/l, CaCl2 48-290 mg/l, MgCl2 42-330 mg/l, NaH2PO4 56-1130 mg/l, Arginine 56-930 mg/l, Asparagine 44-900 mg/l, Aspartic acid 26-445 mg/l, Cysteine 35-270 mg/l, Glutamic acid 44-900 mg/, Glutamine 44-900 mg/l, Glycine 18-180 mg/l, Histidine 42-670 mg/l, Isoleucine 54-877 mg/l, Leucine 59-1250 mg/l, Lysine 73-1120 mg/l, Methionine 9-454 mg/l, Phenylalanine 35-677 mg/l, Proline 17-828 mg/l, Serine 26-1339 mg/l, Threonine 24-989 mg/l, Tryptophane 9-441 mg/l, Tyrosine 55-565 mg/l, Valine 52-787 mg/l, NaHCO3 2,4 g/l. The basal medium further comprises fatty acids and nucleotides. In all batch and fed-batch experiments the same proprietary culture medium and proprietary feed medium were used, unless otherwise stated. The feed medium used in fed-batch experiments (in the following also termed “proprietary feed medium”) has all necessary substances for cell growth, cell viability and cellular productivity, in particular salts, trace elements, carbohydrates, amino acids, fatty acids, pH regulator, nucleotides. Even though here a rich feed medium is used containing above mentioned substances, feed media must not comprise all of these components. Feed media consisting of one or more of above mentioned substances are suitable also. Both basal medium and feed medium are serum free, protein free, peptone free and peptide free. […]

The conditions of data set [4]: oligopeptide-free medium; WO 2007/077217; cited from earlier work.
Data set [5] relates to CHO (Chinese hamster ovary) cells. To be noted: 10 μM ferric iron plus spermine 0 to 100 μM, serum containing medium; Gaboriau et al. 2004; cited from earlier work.
The subject of data set [6] is BHK (baby hamster kidney) cells. To be noted: adherent growing BHK cells, serum containing medium; Brunton et al. 1991; cited from earlier work.
[7] abbreviates: Example 8, FIG. 8, in the presence of spermine.

Turning to `[Fe+3]` [ferric (Fe^3+) iron], the “mitochondrial DNA damage” value in data set [1] is “damaged”.

In the case of `[Fe+2]` [ferrous (Fe^2+)], in data set [1], the “mitochondrial DNA damage” value was “damaged”.

`O=C([O-])CC(O)(CC(=O)[O-])C(=O)[O-].[Fe+3]` [iron (III) citrate]: the “requirement for optimal cell growth” value in data set [2] is recorded as “required”.

In the case of `O.O.O.O.O.O.O.O.O.O=[N+]([O-])[O-].O=[N+]([O-])[O-].O=[N+]([O-])[O-].[Fe+3]` [iron (III) nitrate nonahydrate], in data set [3], the “effect of spermine and iron together on cell concentration” value is recorded as “synergistic effects”.

As to `O=P([O-])([O-])[O-].[Fe+3]` [iron (III) phosphate], in data set [2] (setting [7]), the “effect of high iron concentration on cell growth” value is reported as “promotes cell growth” and the “toxicity of high iron concentration to the cells” value is listed as “not toxic”.

`NCCCCN` [putrescine]: the “efficiency among amines in promoting cell specific productivity” value in data set [4] was “most efficient amine”.

For the compound `NCCCCNCCCN` [spermidine], the cell concentration reached entry in data set [3] (Example 2, FIG. 2, 100 mg/l iron (III) pyrophosphate hydrate, with versus without spermidine) is “higher concentration”. Besides, the toxicity of spermidine entry in data set [3] (Example 2, FIG. 2, tested high concentrations, 100 mg/l iron (III) pyrophosphate hydrate) was “not visible”.

For the compound `NCCCNCCCCNCCCN` [spermine], the “cellular productivity on increasing concentration above 2 mg/l” value in data set [4] is given as “does not significantly increase”. The “number of viable cells” value in data set [5] was “decreases the number of viable cells in a dose-dependent manner”. The “effect of spermine and iron together on cell concentration” value in data set [3] is on record as “synergistic effects”. In data set [2], the “effect of spermine and iron together on cell growth” value was “synergistic effect”; the “requirement for optimal cell growth” value was “required”. In data set [2] (Example 3, FIG. 3, 100 mg/l iron (III) pyrophosphate hydrate in medium, 800 mg/l in feed), the “cell growth with increasing spermine concentration” value is given as “grow better”. For the same compound, the “effect of spermine on cell growth” value in data set [2] (Example 7, FIG. 7, iron (III) citrate as iron source, feed 3200 mg/l iron (III) citrate) is “positive effect”. In addition, the “effect of spermine on cell growth” value in data set [2] (Example 8, FIG. 8, iron (III) phosphate as iron source, feed 800 mg/l iron (III) phosphate) is listed as “positive effect”. Moreover, the toxicity to cells entry in data set [6] is “toxic”.

For iron, in data set [2] (Example 1, FIG. 1), the “need of iron for cell growth” value was “essential”. Also, the “effect of spermine and iron together on cell growth” value in data set [2] was “synergistic effect”.

Take iron dextran: the “effect of high iron concentration on cell growth” value in data set [2] (Example 9, FIG. 9, 40 mg/l spermine, iron dextran fed at day 6 to 250 mg/l) is listed as “promotes cell growth”.
